According to patent US9172221B2, “Converter building” (ABB Technology AG, priority 2011, dated 2015):

What was measured:
[1] = toxicity / lethal concentration LC50
[2] = in vivo

Row | SMILES | risk for human toxicity ([1]; concluded from available results of mammalian HFC (hydrofluorocarbon) tests) | toxicity (in words) [2] | LC50 ([1]; in vivo)
1 | FC(F)(F)COC(F)(F)F [2,2,2-trifluoroethyl-trifluoromethyl ether] | low risk for human toxicity | – | –
2 | O=C(C(F)(F)F)C(F)(C(F)(F)F)C(F)(F)F [C5-ketone, 1,1,1,3,4,4,4-heptafluoro-3-(trifluoromethyl)butan-2-one] | – | practically non-toxic | –
3 | O=C(C(F)(F)C(F)(F)F)C(F)(C(F)(F)F)C(F)(F)F [C6-ketone, 1,1,1,2,4,4,5,5,5-Nonafluoro-2-(trifluoromethyl)pentan-3-one] | – | non-toxic | about 100,000 ppm
